Data: ChEMBL document CHEMBL1933021, “Novel and selective spiroindoline-based inhibitors of Sky kinase” (Bioorg Med Chem Lett, 2012)
pIC50: −log10 of the molar value.

How the values were obtained:
Cytochrome P450 2D6 = Cytochrome P450 2D6 (Homo sapiens, UniProt P10635); experiment: Inhibition of CYP2D6 using dextromethorphan as substrate; assay type: ADME
Rattus norvegicus = experiment: Volume of distribution at steady state in po dosed Sprague-Dawley rat; assay type: ADME, organism-based; settings: in vivo
[1] = Clearance in po dosed Sprague-Dawley rat; assay type: ADME, organism-based; settings: in vivo
[2] = Oral bioavailability in Sprague-Dawley rat; assay type: ADME, organism-based; settings: in vivo
[3] = biological target: Serine/threonine-protein kinase TAO3 (Homo sapiens, UniProt Q9H2K8); experiment: Inhibition of TAOK3
CYP2D6 = CYP2D6 (Homo sapiens, UniProt P10635); experiment: Inhibition of CYP2D6 using dextromethorphan as substrate at 3 uM; assay type: ADME; settings: probe dextromethorphan
Insulin receptor = Insulin receptor (Homo sapiens, UniProt P06213); experiment: Inhibition of INSR
[4] = Permeability across human Caco2 cells; assay type: ADME, cell-based; settings: Caco-2, read-out: permeability
[5] = biological target: RAC-alpha serine/threonine-protein kinase (Homo sapiens, UniProt P31749); experiment: Inhibition of AKT1
Aurora kinase A = Aurora kinase A (Homo sapiens, UniProt O14965); experiment: Inhibition of Aurora-A
Sequence of Aurora kinase A (O14965 whole entry): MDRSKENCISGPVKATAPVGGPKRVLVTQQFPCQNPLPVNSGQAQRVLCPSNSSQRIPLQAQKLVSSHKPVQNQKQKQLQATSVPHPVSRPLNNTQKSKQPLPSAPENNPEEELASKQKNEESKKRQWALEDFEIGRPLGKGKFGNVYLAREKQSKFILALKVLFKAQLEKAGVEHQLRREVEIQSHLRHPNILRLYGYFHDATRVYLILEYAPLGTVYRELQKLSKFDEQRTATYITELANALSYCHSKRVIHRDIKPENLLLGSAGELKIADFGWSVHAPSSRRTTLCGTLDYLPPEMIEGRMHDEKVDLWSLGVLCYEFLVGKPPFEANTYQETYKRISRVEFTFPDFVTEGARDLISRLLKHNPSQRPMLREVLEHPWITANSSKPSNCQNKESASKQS

Sequence of Cytochrome P450 2D6 (P10635 whole entry): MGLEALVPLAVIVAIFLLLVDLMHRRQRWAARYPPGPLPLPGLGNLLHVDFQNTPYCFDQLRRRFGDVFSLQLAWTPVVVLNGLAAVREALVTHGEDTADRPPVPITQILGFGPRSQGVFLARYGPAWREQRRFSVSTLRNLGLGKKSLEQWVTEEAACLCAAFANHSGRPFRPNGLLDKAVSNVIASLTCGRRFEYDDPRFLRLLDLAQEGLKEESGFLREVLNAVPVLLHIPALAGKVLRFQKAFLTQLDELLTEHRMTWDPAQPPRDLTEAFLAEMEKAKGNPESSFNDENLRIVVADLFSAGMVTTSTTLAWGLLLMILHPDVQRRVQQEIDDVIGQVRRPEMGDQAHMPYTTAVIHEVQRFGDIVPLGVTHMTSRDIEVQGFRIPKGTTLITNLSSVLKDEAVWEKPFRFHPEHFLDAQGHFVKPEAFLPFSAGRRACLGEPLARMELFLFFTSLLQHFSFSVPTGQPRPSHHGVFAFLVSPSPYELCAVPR
Sequence of CYP2D6 (P10635 whole entry): as above
Sequence of RAC-alpha serine/threonine-protein kinase (P31749 whole entry): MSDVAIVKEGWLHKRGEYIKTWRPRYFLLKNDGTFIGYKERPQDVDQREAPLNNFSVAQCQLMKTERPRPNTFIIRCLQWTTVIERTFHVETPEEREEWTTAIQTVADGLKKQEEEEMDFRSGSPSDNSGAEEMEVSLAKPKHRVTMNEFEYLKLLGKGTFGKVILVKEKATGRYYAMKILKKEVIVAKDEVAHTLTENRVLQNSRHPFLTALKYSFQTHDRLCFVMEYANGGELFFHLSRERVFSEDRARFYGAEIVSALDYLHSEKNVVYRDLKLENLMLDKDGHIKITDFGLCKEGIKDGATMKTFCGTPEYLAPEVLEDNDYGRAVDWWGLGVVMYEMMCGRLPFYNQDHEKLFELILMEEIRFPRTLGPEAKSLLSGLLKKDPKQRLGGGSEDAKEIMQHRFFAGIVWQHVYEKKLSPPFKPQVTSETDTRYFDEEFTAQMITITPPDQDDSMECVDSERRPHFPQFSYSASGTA
Sequence of Serine/threonine-protein kinase TAO3 (Q9H2K8 whole entry): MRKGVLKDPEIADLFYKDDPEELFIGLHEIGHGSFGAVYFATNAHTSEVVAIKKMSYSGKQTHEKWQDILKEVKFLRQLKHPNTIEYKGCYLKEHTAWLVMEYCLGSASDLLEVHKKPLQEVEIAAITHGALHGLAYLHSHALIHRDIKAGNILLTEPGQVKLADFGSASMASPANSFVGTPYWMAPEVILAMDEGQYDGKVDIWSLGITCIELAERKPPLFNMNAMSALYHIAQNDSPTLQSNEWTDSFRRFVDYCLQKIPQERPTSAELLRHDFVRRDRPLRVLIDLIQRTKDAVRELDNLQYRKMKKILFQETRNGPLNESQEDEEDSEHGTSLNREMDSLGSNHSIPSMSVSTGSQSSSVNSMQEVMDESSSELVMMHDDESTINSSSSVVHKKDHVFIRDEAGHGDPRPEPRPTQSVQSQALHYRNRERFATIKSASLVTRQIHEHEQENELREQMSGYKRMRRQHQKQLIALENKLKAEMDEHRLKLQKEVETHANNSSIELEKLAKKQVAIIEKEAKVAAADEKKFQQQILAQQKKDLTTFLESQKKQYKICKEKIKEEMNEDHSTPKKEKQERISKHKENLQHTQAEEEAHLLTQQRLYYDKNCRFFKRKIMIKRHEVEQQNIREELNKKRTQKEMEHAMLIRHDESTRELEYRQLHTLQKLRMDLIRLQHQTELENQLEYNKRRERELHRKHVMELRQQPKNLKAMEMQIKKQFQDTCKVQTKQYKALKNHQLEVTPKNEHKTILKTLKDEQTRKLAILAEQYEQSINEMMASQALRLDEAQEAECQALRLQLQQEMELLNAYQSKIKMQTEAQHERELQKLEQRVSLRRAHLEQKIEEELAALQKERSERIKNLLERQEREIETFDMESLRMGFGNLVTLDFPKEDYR
Sequence of Insulin receptor (P06213 28-758 limits assumed): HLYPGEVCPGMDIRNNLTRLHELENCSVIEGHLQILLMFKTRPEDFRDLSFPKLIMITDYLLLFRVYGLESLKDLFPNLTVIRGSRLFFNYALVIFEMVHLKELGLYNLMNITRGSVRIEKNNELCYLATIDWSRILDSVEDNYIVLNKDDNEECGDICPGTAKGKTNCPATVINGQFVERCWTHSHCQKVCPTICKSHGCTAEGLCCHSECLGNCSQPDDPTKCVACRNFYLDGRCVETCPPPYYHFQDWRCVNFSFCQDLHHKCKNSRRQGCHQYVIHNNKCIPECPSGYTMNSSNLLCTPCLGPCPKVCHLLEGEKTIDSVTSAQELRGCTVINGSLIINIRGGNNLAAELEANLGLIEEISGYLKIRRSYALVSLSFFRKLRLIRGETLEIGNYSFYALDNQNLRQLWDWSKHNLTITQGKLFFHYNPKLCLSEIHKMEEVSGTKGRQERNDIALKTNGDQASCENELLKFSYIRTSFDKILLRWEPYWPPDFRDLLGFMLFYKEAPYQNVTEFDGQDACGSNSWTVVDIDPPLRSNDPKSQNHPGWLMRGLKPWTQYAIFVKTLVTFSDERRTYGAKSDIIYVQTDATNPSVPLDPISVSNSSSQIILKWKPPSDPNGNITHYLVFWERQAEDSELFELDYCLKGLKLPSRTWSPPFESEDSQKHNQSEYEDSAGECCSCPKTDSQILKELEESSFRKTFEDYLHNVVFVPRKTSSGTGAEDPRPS
Sequence of Insulin receptor (P06213 763-1382 limits assumed): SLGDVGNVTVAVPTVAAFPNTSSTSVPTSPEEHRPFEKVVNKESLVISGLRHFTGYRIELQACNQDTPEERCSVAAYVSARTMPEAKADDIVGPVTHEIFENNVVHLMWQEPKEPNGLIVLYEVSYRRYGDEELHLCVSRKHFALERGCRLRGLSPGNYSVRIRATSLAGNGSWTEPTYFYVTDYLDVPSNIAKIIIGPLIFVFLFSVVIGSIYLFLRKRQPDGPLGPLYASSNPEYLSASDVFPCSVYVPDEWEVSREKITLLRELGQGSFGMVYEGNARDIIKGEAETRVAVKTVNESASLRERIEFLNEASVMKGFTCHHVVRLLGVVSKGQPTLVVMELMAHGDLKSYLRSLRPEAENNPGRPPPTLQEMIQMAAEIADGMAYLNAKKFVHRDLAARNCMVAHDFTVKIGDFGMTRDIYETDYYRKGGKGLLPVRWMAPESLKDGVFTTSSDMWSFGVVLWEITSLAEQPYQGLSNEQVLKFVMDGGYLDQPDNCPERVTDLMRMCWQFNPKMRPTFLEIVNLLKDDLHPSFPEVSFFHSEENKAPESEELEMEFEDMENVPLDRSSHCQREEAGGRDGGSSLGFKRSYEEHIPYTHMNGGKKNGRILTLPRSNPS

| Compound | pIC50 (Cytochrome P450 2D6) | Vdss (Rattus norvegicus) | CL/F [1] | bioavailability [2] | pIC50 [3] | inhibition at 3 µM (CYP2D6) | pIC50 (Insulin receptor) | Papp [4] | pIC50 [5] | pIC50 (Aurora kinase A) |
| --- | --- | --- | --- | --- | --- | --- | --- | --- | --- | --- |
| O=C(c1cc2ccc(F)cc2[nH]1)N1C[C@]2(CCN(C3CCNC3)C2)c2ccccc21 (stereo not given in full) | 6.18 | 1.6 L/kg | 5 mL/min/kg | 11% |  |  |  |  |  |  |
| C[C@@H]1CCC(N2CC[C@]3(CN(C(=O)c4cc5ccc(F)cc5[nH]4)c4ccccc43)C2)CN1 (stereo not given in full) |  |  |  |  | < 4.52 | 94% | < 4.52 | 5.13 ×10⁻⁶ cm/s | < 4.52 | < 4.52 |
